According to ChEMBL document CHEMBL6153165, “Clozapine as an E3 Ligand for PROTAC Technology” (ACS Med Chem Lett, 2025):
The source made the active and inactive calls. The calls are words filed in the database; no cut-off is given here.

Legend:
[1] = test system: MCF7; test: Induction of ER-alpha degradation (unknown origin) at 30 uM by measuring ER-alpha to beta actin ratio incubated for 24 hrs Western blotting analysis (reference value: 100%); assay type: cell-based; settings: Homo sapiens
[2] = test system: HEK293; test: (§1) PROTAC activity at E3-ubiquitin ligase/Halo-tagged Brazilian click beetle Emerald luciferase expressed in human HEK293 cells assessed as decrease in Halo-ELuc protein level by measuring Halo-Eluc to beta-actin ratio at 0.1 uM incubated for 24 hrs by luciferase based Western blotting analysis (reference value: 100%); assay type: cell-based; design: scale not given: the % may be the effect or the level left
[3] = test system: HEK293; test: as §1, with “1” for “0.1”; assay type: cell-based; design: scale not given: the % may be the effect or the level left
[4] = test system: HEK293; test: as §1, with “20” for “0.1”; assay type: cell-based; design: scale not given: the % may be the effect or the level left
[5] = test system: HEK293; test: as §1, with “10” for “0.1”; assay type: cell-based; design: scale not given: the % may be the effect or the level left
[6] = test system: HEK293; test: PROTAC activity at E3-ubiquitin ligase/Halo-tagged Brazilian click beetle Emerald luciferase expressed in human HEK293 cells assessed as decrease in Halo-ELuc protein level pretreated with compound followed by 1-chlorohexane addition and measured after 24 hrs by competitive assay; assay type: cell-based
[7] = test system: HEK293; test: PROTAC activity at E3-ubiquitin ligase/Halo-tagged Brazilian click beetle Emerald luciferase expressed in human HEK293 cells assessed as decrease in Halo-ELuc protein level pretreated with 1-chlorohexane for 2 hrs followed by compound addition and measured after 24 hrs by competitive assay; assay type: cell-based
[8] = test system: HEK293; test: as §1, with “0.01” for “0.1”; assay type: cell-based; design: scale not given: the % may be the effect or the level left
[9] = test system: MCF7; test: PROTAC activity at E3-ubiquitin ligase/ER-alpha expressed in human MCF7 cells assessed as induction of ER-alpha degradation incubated for 24 hrs by measuring ER-alpha to beta actin ratio at 30 uM by Western blotting analysis (reference value: 100%); assay type: cell-based
[10] = test system: MCF7; test: PROTAC activity at E3-ubiquitin ligase/ER-alpha expressed in human MCF7 cells assessed as decrease in ER-alpha protein level by measuring […] at 10 uM incubated for 24 hrs by Western blotting analysis (reference value: 100%); assay type: cell-based; design: scale not given: the % may be the effect or the level left
[11] = test system: MCF7; test: PROTAC activity at E3-ubiquitin ligase/ER-alpha expressed in human MCF7 cells assessed as decrease in ER-alpha protein level by measuring […] at 100 uM incubated for 24 hrs by Western blotting analysis (reference value: 100%); assay type: cell-based; design: scale not given: the % may be the effect or the level left
[12] = test system: MCF7; test: PROTAC activity at E3-ubiquitin ligase/ER-alpha expressed in human MCF7 cells assessed as induction of ER-alpha degradation incubated for 24 hrs by measuring ER-alpha to beta actin ratio at 100 uM by Western blotting analysis (reference value: 100%); assay type: cell-based
[13] = test system: MCF7; test: PROTAC activity at E3-ubiquitin ligase/ER-alpha expressed in human MCF7 cells assessed as decrease in ER-alpha protein level by measuring […] at 1 uM incubated for 24 hrs by Western blotting analysis (reference value: 100%); assay type: cell-based; design: scale not given: the % may be the effect or the level left
[14] = test system: MCF7; test: PROTAC activity at E3-ubiquitin ligase/ER-alpha expressed in human MCF7 cells assessed as decrease in ER-alpha protein level by measuring […] at 0.03 uM incubated for 24 hrs by Western blotting analysis (reference value: 100%); assay type: cell-based; design: scale not given: the % may be the effect or the level left
[15] = test system: MCF7; test: PROTAC activity at E3-ubiquitin ligase/ER-alpha expressed in human MCF7 cells assessed as decrease in ER-alpha protein level by measuring […] at 0.3 uM incubated for 24 hrs by Western blotting analysis (reference value: 100%); assay type: cell-based; design: scale not given: the % may be the effect or the level left
[16] = test system: MCF7; test: PROTAC activity at E3-ubiquitin ligase/ER-alpha expressed in human MCF7 cells assessed as decrease in ER-alpha protein level by measuring […] at 30 uM incubated for 24 hrs by Western blotting analysis (reference value: 100%); assay type: cell-based; design: scale not given: the % may be the effect or the level left
[17] = test system: MCF7; test: PROTAC activity at E3-ubiquitin ligase/ER-alpha expressed in UBR2 knockdown human MCF7 cells assessed as induction of ER-alpha degradation by measuring ER-alpha to beta actin ratio at 100 uM incubated for 24 hrs by Western blotting analysis (reference value: 100%); assay type: cell-based
[18] = test system: MCF7; test: PROTAC activity at E3-ubiquitin ligase/ER-alpha expressed in human MCF7 cells assessed as induction of ER-alpha degradation incubated for 24 hrs in presence of MG132 by measuring ER-alpha to beta actin ratio at 30 uM by Western blotting analysis (reference value: 100%); assay type: cell-based
[19] = test system: MCF7; test: PROTAC activity at E3-ubiquitin ligase/ER-alpha expressed in human MCF7 cells assessed as decrease in ER-alpha protein level by measuring ER-alpha to beta actin ratio at 30 uM incubated for 24 hrs Western blotting analysis (reference value: 100%); assay type: cell-based; design: scale not given: the % may be the effect or the level left
[20] = test system: MCF7; test: PROTAC activity at E3-ubiquitin ligase/ER-alpha expressed in human MCF7 cells assessed as induction of ER-alpha degradation incubated for 24 hrs in presence of MLN7243 by measuring ER-alpha to beta actin ratio at 30 uM by Western blotting analysis (reference value: 100%); assay type: cell-based
[21] = test system: MCF7; test: PROTAC activity at E3-ubiquitin ligase/ER-alpha expressed in human MCF7 cells assessed as induction of ER-alpha degradation by measuring ER-alpha to beta actin ratio at 30 uM incubated for 24 hrs by Western blotting analysis (reference value: 100%); assay type: cell-based
[22] = test system: MCF7; test: PROTAC activity at E3-ubiquitin ligase/ER-alpha expressed in human MCF7 cells assessed as induction of ER-alpha degradation incubated for 24 hrs in presence of MG132 by measuring ER-alpha to beta actin ratio at 100 uM by Western blotting analysis (reference value: 100%); assay type: cell-based
[23] = test system: MCF7; test: PROTAC activity at E3-ubiquitin ligase/ER-alpha expressed in UBR1 knockdown human MCF7 cells assessed as induction of ER-alpha degradation by measuring ER-alpha to beta actin ratio at 100 uM incubated for 24 hrs by Western blotting analysis (reference value: 100%); assay type: cell-based
[24] = test system: MCF7; test: PROTAC activity at E3-ubiquitin ligase/ER-alpha expressed in UBR1 knockdown human MCF7 cells assessed as induction of ER-alpha degradation by measuring ER-alpha to beta actin ratio at 30 uM incubated for 24 hrs by Western blotting analysis (reference value: 100%); assay type: cell-based
[25] = test system: MCF7; test: PROTAC activity at E3-ubiquitin ligase/ER-alpha expressed in UBR2 knockdown human MCF7 cells assessed as induction of ER-alpha degradation by measuring ER-alpha to beta actin ratio at 30 uM incubated for 24 hrs by Western blotting analysis (reference value: 100%); assay type: cell-based
[26] = test system: MCF7; test: Antiproliferative activity against human MCF7 cells assessed as inhibition of cell viability; assay type: functional, cell-based; settings: dose 1-100 µM
[27] = test system: MCF7; test: PROTAC activity at E3-ubiquitin ligase/ER-alpha expressed in human MCF7 cells assessed as decrease in ER-alpha protein level by measuring […] at 3 uM incubated for 24 hrs by Western blotting analysis(reference value: 100%); assay type: cell-based; design: scale not given: the % may be the effect or the level left
[28] = test system: MCF7; test: PROTAC activity at E3-ubiquitin ligase/ER-alpha expressed in UBR5 knockdown human MCF7 cells assessed as induction of ER-alpha degradation by measuring ER-alpha to beta actin ratio at 100 uM incubated for 24 hrs by Western blotting analysis (reference value: 41%); assay type: cell-based
[29] = test system: MCF7; test: PROTAC activity at E3-ubiquitin ligase/ER-alpha expressed in human MCF7 cells assessed as decrease in ER-alpha protein level by measuring […] at 0.1 uM incubated for 24 hrs by Western blotting analysis (reference value: 100%); assay type: cell-based; design: scale not given: the % may be the effect or the level left
[30] = test system: MCF7; test: PROTAC activity at E3-ubiquitin ligase/ER-alpha expressed in human MCF7 cells assessed as induction of ER-alpha degradation incubated for 24 hrs in presence of MLN7243 by measuring ER-alpha to beta actin ratio at 100 uM by Western blotting analysis (reference value: 100%); assay type: cell-based
[31] = test system: MCF7; test: PROTAC activity at E3-ubiquitin ligase/ER-alpha expressed in UBR4 knockdown human MCF7 cells assessed as induction of ER-alpha degradation by measuring ER-alpha to beta actin ratio at 100 uM incubated for 24 hrs by Western blotting analysis (reference value: 41%); assay type: cell-based
[32] = test system: MCF7; test: PROTAC activity at E3-ubiquitin ligase/ER-alpha expressed in UBR4 knockdown human MCF7 cells assessed as induction of ER-alpha degradation by measuring ER-alpha to beta actin ratio at 30 uM incubated for 24 hrs by Western blotting analysis (reference value: 16%); assay type: cell-based
[33] = test system: MCF7; test: PROTAC activity at E3-ubiquitin ligase/ER-alpha expressed in UBR5 knockdown human MCF7 cells assessed as induction of ER-alpha degradation by measuring ER-alpha to beta actin ratio at 30 uM incubated for 24 hrs by Western blotting analysis (reference value: 16%); assay type: cell-based
[34] = test system: MCF7; test: PROTAC activity at E3-ubiquitin ligase/ER-alpha expressed in human MCF7 cells assessed as induction of ER-alpha degradation by measuring ER-alpha to beta actin ratio at 100 uM incubated for 24 hrs by Western blotting analysis (reference value: 100%); assay type: cell-based
[35] = test system: MCF7; test: Induction of ER-alpha degradation (unknown origin) at 30 uM in presence of 4-OHT by measuring ER-alpha to beta actin ratio incubated for 24 hrs Western blotting analysis (reference value: 100%); assay type: cell-based; settings: Homo sapiens

CC/C(=C(\c1ccc(O)cc1)c1ccc(OCCN(C)C)cc1)c1ccccc1
Activity [1]: 116%

ClCCCCCCOCCOCCN1CCN(C2=Nc3cc(Cl)ccc3Nc3ccccc32)CC1
Activity [2]: 97%
Activity [3]: 57%
Activity [4]: 22%
Activity [5]: 32%
Activity [6]: Not active; Complete Recovery Of Luminescence Not Observed
Activity [7]: inactive
Activity [8]: 103%

CC/C(=C(/c1ccc(O)cc1)c1ccc(OCCN(C)C(=O)CCC(=O)NCCOCCOCCOCCN2CCN(C3=Nc4cc(Cl)ccc4Nc4ccccc43)CC2)cc1)c1ccccc1
Activity [9]: 51%
Activity [10]: 116%
Activity [11]: 33%
Activity [12]: 27%
Activity [13]: 160%
Activity [14]: 122%
Activity [15]: 148%
Activity [16]: 42%
Activity [17]: 40%
Activity [18]: 163%
Activity [19]: 37%
Activity [20]: 121%
Activity [21]: 16%
Activity [22]: 152%
Activity [23]: 28%
Activity [24]: 14%
Activity [25]: 27%
Activity [26]: Dose-dependent-effect
Activity [27]: 160%
Activity [28]: 51%
Activity [29]: 132%
Activity [30]: 104%
Activity [31]: 21%
Activity [32]: 1%
Activity [33]: 45%
Activity [34]: 41%

CN1CCN(C2=Nc3cc(Cl)ccc3Nc3ccccc32)CC1
Activity [1]: 104%
Activity [35]: 91%
